This note sets out measurements from patent publication US10689354B2, “Aminoazole derivative” (Teijin Pharma Limited, priority 2015, dated 2020).

In experiment [1] the target is T1, androgen receptor (AR-LBD) (Rattus norvegicus, UniProt P15207).
T1 construct: 5 μL of 2×AR-LBD/Fluoromone AL Red Complex contained in the kit; purchased Invitrogen
T1 sequence (P15207 651-882 limits assumed): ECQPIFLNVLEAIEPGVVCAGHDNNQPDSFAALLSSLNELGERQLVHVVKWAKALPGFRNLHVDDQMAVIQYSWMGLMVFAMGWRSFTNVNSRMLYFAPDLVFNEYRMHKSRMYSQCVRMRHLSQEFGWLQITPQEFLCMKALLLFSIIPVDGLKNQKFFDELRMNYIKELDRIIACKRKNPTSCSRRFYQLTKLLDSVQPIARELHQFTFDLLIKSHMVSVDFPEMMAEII
The experiment in a line: Evaluation of androgen receptor affinity (PolarScreen Androgen Receptor Competitor Assay Kit, Red; fluorescence polarization). The following applies: 22° C. for 5 hours, relative to binding rate of 1 μM DHT, read-out: AR affinity (pEC50) (converted). The method, boiled down:
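Fluorescence polarization competition assay: compound was incubated in duplicate with the kit's AR-LBD/Fluoromone AL Red complex for 5 h at 22 °C. Binding was expressed relative to 1 μM DHT, and pEC50 was derived by 4-parameter fit.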

The target in a further experiment is T2, human androgen receptor (Homo sapiens, UniProt P10275).
T2 construct: expressed in transfected cells; host or cells: HEK293
T2 sequence (P10275 1-920): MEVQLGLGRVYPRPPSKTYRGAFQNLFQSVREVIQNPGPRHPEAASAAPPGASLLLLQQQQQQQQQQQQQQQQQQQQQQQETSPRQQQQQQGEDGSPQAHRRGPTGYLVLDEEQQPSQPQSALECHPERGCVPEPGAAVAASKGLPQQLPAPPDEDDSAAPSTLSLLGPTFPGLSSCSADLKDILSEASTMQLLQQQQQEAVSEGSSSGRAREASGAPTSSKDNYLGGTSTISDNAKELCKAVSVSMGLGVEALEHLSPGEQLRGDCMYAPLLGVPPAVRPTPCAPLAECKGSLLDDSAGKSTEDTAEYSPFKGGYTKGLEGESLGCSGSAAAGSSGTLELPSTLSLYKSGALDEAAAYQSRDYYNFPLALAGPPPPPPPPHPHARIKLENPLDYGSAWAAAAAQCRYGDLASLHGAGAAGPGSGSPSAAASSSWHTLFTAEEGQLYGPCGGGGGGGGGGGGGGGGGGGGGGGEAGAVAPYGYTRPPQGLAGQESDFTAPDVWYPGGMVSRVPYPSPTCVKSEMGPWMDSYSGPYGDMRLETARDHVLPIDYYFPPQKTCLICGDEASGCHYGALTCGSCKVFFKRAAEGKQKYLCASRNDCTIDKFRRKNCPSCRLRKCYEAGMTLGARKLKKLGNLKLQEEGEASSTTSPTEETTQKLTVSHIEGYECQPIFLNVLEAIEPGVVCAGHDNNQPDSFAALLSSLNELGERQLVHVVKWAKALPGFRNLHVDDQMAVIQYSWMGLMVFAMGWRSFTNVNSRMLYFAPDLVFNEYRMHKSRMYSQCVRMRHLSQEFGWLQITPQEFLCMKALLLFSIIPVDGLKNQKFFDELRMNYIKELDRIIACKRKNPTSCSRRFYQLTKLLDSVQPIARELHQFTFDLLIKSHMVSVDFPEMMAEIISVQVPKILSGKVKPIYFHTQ
The experiment in a line: Reporter assay of an androgen receptor responsive sequence (luciferase, transiently transfected HEK293 cells). The class given is cell-based. The following applies: 24 hours incubation, relative to activity of 100 nM DHT, read-out: AR transcriptive activity (pEC50) (converted). The method, boiled down:
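HEK293 cells transiently transfected for 3 h with ARE-firefly luciferase, full-length human AR and TK-Renilla plasmids, then exposed to compound for 24 h at 37 °C in 5% charcoal-treated FBS/DMEM. Dual-Glo luminescence read; pEC50 from 4-parameter fit relative to 100 nM DHT.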
On the technique in general: A reporter such as luciferase makes a cellular process visible.

With `Cc1nc(CN(CCc2ccc(Cl)cc2)c2nc(C(=O)NS(C)(=O)=O)c(C)o2)cs1` [Compound 546, 2-[2-(4-chlorophenyl)ethyl-[(2-methylthiazol-4-yl)methyl]amino]-5-methyl-N-methylsulfonyl-oxazole-4-carboxamide], the EC50 was 200 nM in experiment [1] and 1580 nM on human androgen receptor.
Consider `Cc1oc(N(CCc2ccc(C#N)cc2)Cc2ccc(Cl)cc2)nc1C(=O)NS(C)(=O)=O` [Compound 548, 2-[(4-chlorophenyl)methyl-[2-(4-cyanophenyl)ethyl]amino]-5-methyl-N-methylsulfonyl-oxazole-4-carboxamide], for which the figures for the EC50 (in experiment [1]; on human androgen receptor) were 25.1 nM and 126 nM, respectively.
On the same counts, the results for `Cc1oc(N(CCc2ccc(Cl)cc2)Cc2ccc(Cl)cn2)nc1C(=O)NS(C)(=O)=O` [Compound 549, 2-[2-(4-chlorophenyl)ethyl-[(5-chloro-2-pyridyl)methyl]amino]-5-methyl-N-methylsulfonyl-oxazole-4-carboxamide] are 63.1 nM and 1260 nM.
On the same counts, the results for `Cc1oc(N(CCc2ccc(Cl)cc2)Cc2ccc(F)cc2)nc1C(=O)NS(C)(=O)=O` [Compound 550, 2-[2-(4-chlorophenyl)ethyl-[(4-fluorophenyl)methyl]amino]-5-methyl-N-methylsulfonyl-oxazole-4-carboxamide] are 63.1 nM and 251 nM.
On the same counts, the results for `Cc1oc(N(CCc2ccc(Cl)cc2)Cc2ccc(C(F)(F)F)nc2)nc1C(=O)NS(C)(=O)=O` [Compound 551, 2-[2-(4-chlorophenyl)ethyl-[[6-(trifluoromethyl)-3-pyridyl]methyl]amino]-5-methyl-N-methylsulfonyl-oxazole-4-carboxamide] are 39.8 nM and 501 nM.
As to `Cc1oc(N(CCc2ccc(C#N)cc2)Cc2ccc(F)cc2)nc1C(=O)NS(C)(=O)=O` [Compound 552, 2-[2-(4-cyanophenyl)ethyl-[(4-fluorophenyl)methyl]amino]-5-methyl-N-methylsulfonyl-oxazole-4-carboxamide], the EC50 was 79.4 nM in experiment [1] and 501 nM at human androgen receptor.
On the same counts, the results for `Cc1oc(N(CCc2ccc(C#N)cc2)Cc2ccc(OC(F)F)cc2)nc1C(=O)NS(C)(=O)=O` [Compound 553, 2-[2-(4-cyanophenyl)ethyl-[[4-(difluoromethoxy)phenyl]methyl]amino]-5-methyl-N-methylsulfonyl-oxazole-4-carboxamide] are 31.6 nM and 316 nM.
In the same order, the values of `Cc1oc(N(CCc2ccc(C#N)cc2)Cc2ccc(F)cc2Cl)nc1C(=O)NS(C)(=O)=O` [Compound 554, 2-[(2-chloro-4-fluoro-phenyl)methyl-[2-(4-cyanophenyl)ethyl]amino]-5-methyl-N-methylsulfonyl-oxazole-4-carboxamide] are 39.8 nM and 794 nM.
Regarding `Cc1oc(N(CCc2ccc(C#N)cc2)Cc2ccc(C(F)(F)F)nc2)nc1C(=O)NS(C)(=O)=O` [Compound 555, 2-[2-(4-cyanophenyl)ethyl-[[6-(trifluoromethyl)-3-pyridyl]methyl]amino]-5-methyl-N-methylsulfonyl-oxazole-4-carboxamide], the EC50 in experiment [1] was 316 nM; at human androgen receptor it was 5010 nM.
Regarding `COCCCS(=O)(=O)NC(=O)c1nc(N(CCc2ccc(C#N)cc2)Cc2ccc(F)cc2)oc1C` [Compound 556, 2-[2-(4-cyanophenyl)ethyl-[(4-fluorophenyl)methyl]amino]-N-(3-methoxypropylsulfonyl)-5-methyl-oxazole-4-carboxamide], the values for the EC50 (in experiment [1]; on human androgen receptor) were 100 nM and 1260 nM, respectively.
As for `COCCCS(=O)(=O)NC(=O)c1nc(N(CCc2ccc(C#N)cc2)Cc2ccc(OC(F)F)cc2)oc1C` [Compound 557, 2-[2-(4-cyanophenyl)ethyl-[[4-(difluoromethoxy)phenyl]methyl]amino]-N-(3-methoxypropylsulfonyl)-5-methyl-oxazole-4-carboxamide], the results for the EC50 (in experiment [1]; at human androgen receptor) were 39.8 nM and 631 nM, respectively.
In the same order, the values of `COCCCS(=O)(=O)NC(=O)c1nc(N(CCc2ccc(C#N)cc2)Cc2ccc(F)cc2Cl)oc1C` [Compound 558, 2-[(2-chloro-4-fluoro-phenyl)methyl-[2-(4-cyanophenyl)ethyl]amino]-N-(3-methoxypropylsulfonyl)-5-methyl-oxazole-4-carboxamide] are 63.1 nM and > 10000 nM.
In the same order, the values of `COCCCS(=O)(=O)NC(=O)c1nc(N(CCc2ccc(C#N)cc2)Cc2ccc(C(F)(F)F)nc2)oc1C` [Compound 559, 2-[2-(4-cyanophenyl)ethyl-[[6-(trifluoromethyl)-3-pyridyl]methyl]amino]-N-(3-methoxypropylsulfonyl)-5-methyl-oxazole-4-carboxamide] are 316 nM and 7940 nM.
Consider `Cc1oc(N(CCc2ccc(OC(F)(F)F)cc2)Cc2nc(C3CC3)no2)nc1C(=O)NS(C)(=O)=O` [Compound 560, 2-[(3-cyclopropyl-1,2,4-oxadiazol-5-yl)methyl-[2-[4-(trifluoromethoxy)phenyl]ethyl]amino]-5-methyl-N-methylsulfonyl-oxazole-4-carboxamide], for which the figures for the EC50 (in experiment [1]; at human androgen receptor) were 50.1 nM and 1000 nM, respectively.
On the same counts, the results for `Cc1oc(N(CCc2ccc(OC(F)(F)F)cc2)Cc2ccc(Cl)cn2)nc1C(=O)NS(C)(=O)=O` [Compound 561, 2-[(5-chloro-2-pyridyl)methyl-[2-[4-(trifluoromethoxy)phenyl]ethyl]amino]-5-methyl-N-methylsulfonyl-oxazole-4-carboxamide] are 39.8 nM and 3160 nM.
As for `Cc1oc(N(CCc2ccc(OC(F)(F)F)cc2)Cc2ccc(C(F)(F)F)nc2)nc1C(=O)NS(C)(=O)=O` [Compound 562, 5-methyl-N-methylsulfonyl-2-[2-[4-(trifluoromethoxy)phenyl]ethyl-[[6-(trifluoromethyl)-3-pyridyl]methyl]amino]oxazole-4-carboxamide], the EC50 is 39.8 nM in experiment [1] and 794 nM at human androgen receptor.
In the same order, the values of `COCCCS(=O)(=O)NC(=O)c1nc(N(CCc2ccc(OC(F)(F)F)cc2)Cc2nc(C3CC3)no2)oc1C` [Compound 563, 2-[(3-cyclopropyl-1,2,4-oxadiazol-5-yl)methyl-[2-[4-(trifluoromethoxy)phenyl]ethyl]amino]-N-(3-methoxypropylsulfonyl)-5-methyl-oxazole-4-carboxamide] are 79.4 nM and 1580 nM.
Take `COCCCS(=O)(=O)NC(=O)c1nc(N(CCc2ccc(OC(F)(F)F)cc2)Cc2ccc(Cl)cn2)oc1C` [Compound 564, 2-[(5-chloro-2-pyridyl)methyl-[2-[4-(trifluoromethoxy)phenyl]ethyl]amino]-N-(3-methoxypropylsulfonyl)-5-methyl-oxazole-4-carboxamide]: the EC50 in experiment [1] was 158 nM; at human androgen receptor it was > 10000 nM.
On the same counts, the results for `COCCCS(=O)(=O)NC(=O)c1nc(N(CCc2ccc(OC(F)(F)F)cc2)Cc2ccc(C(F)(F)F)nc2)oc1C` [Compound 565, N-(3-methoxypropylsulfonyl)-5-methyl-2-[2-[4-(trifluoromethoxy)phenyl]ethyl-[[6-(trifluoromethyl)-3-pyridyl]methyl]amino]oxazole-4-carboxamide] are 63.1 nM and 2000 nM.
